The source of these data is patent US9776987B2, “Amide derivatives for GPR119 agonist” (CHONG KUN DANG PHARMACEUTICAL CORP., priority 2013, dated 2017).

Data set [1] is described as follows: Solubility test of GPR 119 agonist compounds (Nephelostar). It counts as physicochemical. The note with it: aqueous with cosolvent or surfactant or cyclodextrin, kinetic from dmso stock. Here is the method: 1. Method of Solubility Test
Each test compounds were dissolved in 5% DMSO aqueous solution as a solvent at several concentrations. When a laser was irradiated to the solution, the particles, which are not dissolved in the solvent, scatter the light. The level of the scattered light is dependent to the number of the particles, so the solubility of the test compound in the solution can be determined using the relationship. As the test equipment, Nephelostar was used.

In data set [2] the test system is Glucagon-Like Peptide-1 (GLP-1) secretion. Description: Secretion capacity test of glucagon-like peptide-1 (GLP-1). The note with it: normal mice, oral, AUC of plasma GLP-1 level, vehicle (water) 100%. It is filed as in vivo, mouse. Here is the method: 3. Secretion Capacity Test of Glucagon-Like Peptide-1 (GLP-1)
Male C57/6J Jms mice of 6-7 weeks of age were fasted for 16 hours before the start of the test of secretion capacity test of GLP-1. The experimental animal groups consist of: a vehicle group (100% DI water); and test groups administered with each compounds (10 mg/kg). Blood samples were taken from the orbital vein of the test animals. Plasma GLP-1 level was determined using a GLP-1 ELISA kit (Total GLP-1 ELISA, ALPCO). With the base of 30 minutes before the compound administration, each blood samples were taken at 30, 60, 120 and 210 minutes after the compound administration. 30% Glucose solution (3 g/kg/10 mL) was administered orally at 5 minutes before each blood-collecting. From the collected blood, only plasma was taken using a centrifuge (12000 rpm, 15 minutes), and stored at −80° C. before analysis. Plasma GLP-1 level vs. Time was graphicalized. Area under the curve (AUC) of plasma GLP-1 level was obtained using GraphPad Prism 4.0. All the results were expressed as mean±SD, and each test groups and the control group were compared using one-way ANOVA test (Dunnett's test, *p<0.05, **p<0.01, ***p<0.001) to adjudge the effects of each test groups.

For a further data set, the target named is T1, human GPR119 receptor (Homo sapiens, UniProt Q8TDV5).
T1 construct: host or cells: GeneBLAzer T-Rex GPR 119 CHO-K1 DA cells (CHO-K1)
T1 sequence (Q8TDV5 1-335): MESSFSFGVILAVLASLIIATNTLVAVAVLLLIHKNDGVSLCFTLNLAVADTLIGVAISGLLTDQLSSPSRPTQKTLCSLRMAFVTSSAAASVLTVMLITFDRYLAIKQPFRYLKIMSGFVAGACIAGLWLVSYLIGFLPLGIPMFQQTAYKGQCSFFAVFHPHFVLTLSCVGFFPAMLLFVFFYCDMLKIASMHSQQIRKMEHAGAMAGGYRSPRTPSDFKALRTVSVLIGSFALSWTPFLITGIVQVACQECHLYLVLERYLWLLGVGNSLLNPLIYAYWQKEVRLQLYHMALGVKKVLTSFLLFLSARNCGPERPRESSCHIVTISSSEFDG
Briefly: Activity test for human GPR119 receptor (GeneBLAzer T-Rex GPR 119 CHO-K1 DA cells). It is filed as cell-based. The note with it: for EC50: human GPR119 receptor expressing CHO-K1 cells, 5 hours treatment, read-out: hGPR119 EC50; for activity for human GPR119 receptor (in words): judgement on the EC50 values of Table 11. In a few lines: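 Compounds at 0.1, 1 and 10 μM, in duplicate, on GeneBLAzer T-Rex GPR119 CHO-K1 DA cells for 5 h, then 2 h with colour-development reagent before fluorescence reading. Test-to-vehicle-control ratio converted to EC50; mean±SD.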

A further data set has as its system Male C57/6J Jms mice. Description: Glucose tolerance test in normal mouse. It counts as in vivo. Here is the method: 1. Method of Glucose Tolerance Test
Male C57/6J Jms mice of 6-7 weeks of age were fasted for 16 hours before the start of glucose tolerance test. […]
Before compound administration, that is, at 0 hour, whole blood glucose level was determined using a Glucometer (ACCU-CHEK, Roche). At 30 minutes after compound administration, whole blood glucose level was determined once again, and 20% glucose (2 g/kg/10 mL) was administered orally. Whole blood glucose level was determined at 20, 40, 60, 80, and 120 minutes after 20% glucose administration. Whole blood glucose level vs. Time was graphicalized. Area under the curve (AUC) of whole blood glucose level was obtained using GraphPad Prism 4.0. The effect of glucose tolerance was adjudged with the corrected area under the curve (cAUC), on which the base value of glucose area under the curve was excluded.

Where [3] appears, read: pH 2, 5% DMSO aqueous solution, read-out: Solubility pH 2.
Setting [4] is: pH 4, 5% DMSO aqueous solution, read-out: Solubility pH 4.
The mark [5] stands for this setting: pH 6, 5% DMSO aqueous solution, read-out: Solubility pH 6.
[6] abbreviates: pH 8, 5% DMSO aqueous solution, read-out: Solubility pH 8.

Structures are written as SMILES. ≈ marks a conversion by molar mass, not a printed value. Where two headings read alike, the source gives them in different places.

One may read the solubility as how much of the substance goes into solution per volume. For orientation: EC50 means the concentration that produces a half-maximal response. As to `CC(C)(F)CN1CCC(COc2ccc(-c3ccc(C(=O)N4CCC[C@@]4(C)C(N)=O)c(F)c3)nc2)CC1` [Compound 1207, (S)-1-(2-fluoro-4-(5-((1-(2-fluoro-2-methylpropyl)piperidin-4-yl)methoxy)pyridin-2-yl)benzoyl)-2-methylpyrrolidin-2-carboxamide], the solubility in data set [1] (setting [3]), in data set [1] (setting [4]), in data set [1] (setting [5]) and in data set [1] (setting [6]) was above 257 µg/mL in each case. Moreover, the “GLP-1 secretion (%) at 10 mg/kg of dose” value in data set [2] is listed as 223%. Further, the EC50 at human GPR119 receptor was determined as 0.07 nM. The “activity for human GPR119 receptor (in words)” value (shortened to “activity”) on human GPR119 receptor is “excellent activity”. For the same molecule, the “Decrease % of AUC at 2.5 mg/kg” value in the data set with Male C57/6J Jms mice amounted to 31.3%. Further, the “Decrease % of AUC at 5 mg/kg” value with Male C57/6J Jms mice was found to be 45.1%.

In the case of `CCC(F)(CC)CN1CCC(COc2ccc(-c3ccc(C(=O)N4C[C@H](O)C[C@H]4C(N)=O)c(F)c3)nc2)CC1` [Compound 1279, (2S,4R)-1-(4-(5-((1-(2-ethyl-2-fluorobutyl)piperidin-4-yl)methoxy)pyridin-2-yl)-2-fluorobenzoyl)-4-hydroxypyrrolidin-2-carboxamide], the solubility was above 272 µg/mL in data set [1] (setting [3]), above 272 µg/mL in data set [1] (setting [4]), above 272 µg/mL in data set [1] (setting [5]) and 133 µg/mL (≈ 244 µM) in data set [1] (setting [6]). Also, in data set [2], the “GLP-1 secretion (%) at 10 mg/kg of dose” value is 324%. In addition, the EC50 at human GPR119 receptor was 13 nM. At human GPR119 receptor, the “activity” value was “excellent activity”. Further, the “Decrease % of AUC at 2.5 mg/kg” value in the data set on Male C57/6J Jms mice came out at 20.8%. For the same molecule, in the data set with Male C57/6J Jms mice, the “Decrease % of AUC at 5 mg/kg” value worked out at 30.2%.

For `CCC(F)(CC)CN1CCC(COc2ccc(-c3ccc(C(=O)N4C[C@H](O)C[C@@]4(C)C(N)=O)c(F)c3)nc2)CC1` [Compound 1291, (2S,4R)-1-(4-(5-((1-(2-ethyl-2-fluorobutyl)piperidin-4-yl)methoxy)pyridin-2-yl)-2-fluorobenzoyl)-4-hydroxy-2-methylpyrrolidin-2-carboxamide], the solubility in data set [1] (setting [3]) is above 279 µg/mL; in data set [1] (setting [4]) it was above 279 µg/mL; in data set [1] (setting [5]), above 279 µg/mL; in data set [1] (setting [6]), 166 µg/mL (≈ 297 µM). Also, the “GLP-1 secretion (%) at 10 mg/kg of dose” value in data set [2] is reported as 347%. Also, the EC50 at human GPR119 receptor is 13 nM. Besides, the “activity” value at human GPR119 receptor is recorded as “excellent activity”. Also, the “Decrease % of AUC at 2.5 mg/kg” value with Male C57/6J Jms mice came out at 15.7%. In addition, the “Decrease % of AUC at 5 mg/kg” value with Male C57/6J Jms mice was 38.0%.

As to `CCc1cnc(N2CCC(c3nc(COc4ccc(-n5cnnn5)cc4)cs3)CC2)nc1` [MBX-2982, reference compound], the solubility in data set [1] (setting [3]) is above 208 µg/mL; in data set [1] (setting [4]), 133 µg/mL (≈ 297 µM); in data set [1] (setting [5]), 61 µg/mL (≈ 136 µM); in data set [1] (setting [6]), 39 µg/mL (≈ 86.9 µM). Also, the “GLP-1 secretion (%) at 10 mg/kg of dose” value in data set [2] is 114%. For the same molecule, the “Decrease % of AUC at 2.5 mg/kg” value in the data set on Male C57/6J Jms mice is on record as 9.5%. Also, the “Decrease % of AUC at 5 mg/kg” value with Male C57/6J Jms mice amounted to 18.5%. Besides, the “Decrease % of AUC at 10 mg/kg” value with Male C57/6J Jms mice (10 mg/kg, whole blood glucose AUC after oral glucose 2 g/kg) is 20~30%.
